Measurements from patent publication US12472272B2, “Radiolabelled compounds for diagnosis or treatment of prostate-specific membrane antigen- expressing cancer” (PROVINCIAL HEALTH SERVICES AUTHORITY, priority 2019, dated 2025).

Legend:
[1] = tested on: PSMA-expressing LNCAP cancer xenografts; assay: Biodistribution of ^68Ga-labeled PSMA-targeting tracers; format: in vivo, mice
Experimental: (§1) Imaging and biodistribution experiments were performed using NODSCID 1L2RγKO male mice. Mice were anesthetized by inhalation with 2% isoflurane in oxygen, and implanted subcutaneously with 1×10^7 LNCaP cells behind left shoulder. Mice were imaged or used in biodistribution studies when the tumor grew up to reach 5-8 mm in diameter during 5-6 weeks.
(§2) PET imaging experiments were conducted using Siemens Inveon micro PET/CT scanner. Each tumor bearing mouse was injected 6-8 MBq of Ga-68 labeled tracer through the tail vein under anesthesia (2% isoflurane in oxygen). The mice were allowed to recover and roam freely in their cage. After 50 min, the mice were sedated again with 2% isoflurane in oxygen inhalation and positioned in the scanner. A 10-min CT scan was conducted first for localization and attenuation correction after segmentation for reconstructing the PET images. Then, a 10-min static PET imaging was performed to determined uptake in tumor and other organs. The mice were kept warm by a heating pad during acquisition. For imaging studies acquired at 3 h post-injection (p.i.), the mice were placed in the micro PET/CT scanner at 170 min p.i. Then, the CT acquisitions were conducted as described above, a 15-min static PET imaging was performed to determined uptake in tumor and other organs.
For biodistribution studies, the mice were injected with the radiotracer as described above. At predetermined time points (1 or 3 h for ^68Ga studies; 1, 4, 24, 72, or 120 h for ^177Lu studies), the mice was anesthetized with 2% isoflurane inhalation, and euthanized by CO2 inhalation. Blood was withdrawn immediately from the heart, and the organs/tissues of interest were collected. The collected organs/tissues were weighed and counted using a Perkin Elmer (Waltham, MA) Wizard2 2480 gamma counter. The uptake in each organ/tissue was normalized to the injected dose using a standard curve, and expressed as the percentage of the injected dose per gram of tissue (% ID/g).

LNCaP tumors = assay: PET/CT imaging of ^68Ga-labeled tracers; format: in vivo, mice; conditions: FIG. 3
Experimental: as §1, §2

For `O=C([O-])CN1CCN(CC(=O)[O-])CCN(CC(=O)NC[C@H]2CC[C@H](C(=O)N[C@@H](Cc3ccc4ccc5cccc6ccc3c4c56)C(=O)NCCCC[C@H](NC(=O)N[C@@H](CCC(=O)O)C(=O)O)C(=O)O)CC2)CCN(CC(=O)[O-])CC1.[68Ga+3]` [^68Ga-HTK03029], the “Tissue (% ID/g): Adrenal glands” value ([1]; 1 h post-injection) was 4.91 ± 1.57 % ID/g, the “Tissue (% ID/g): Blood” value ([1]; 1 h post-injection) was 3.93 ± 0.91 % ID/g and the “Tissue (% ID/g): Bone” value ([1]; 1 h post-injection) was 0.92 ± 0.14 % ID/g. The “Tissue (% ID/g): Brain” value ([1]; 1 h post-injection) was 0.09 ± 0.02 % ID/g, the “Tissue (% ID/g): Fat” value ([1]; 1 h post-injection) was 1.57 ± 0.42 % ID/g and the “Tissue (% ID/g): Heart” value ([1]; 1 h post-injection) was 1.25 ± 0.27 % ID/g. For the same compound, the “Tissue (% ID/g): Intestine” value ([1]; 1 h post-injection) was 0.77 ± 0.11 % ID/g, the “Tissue (% ID/g): Kidneys” value ([1]; 1 h post-injection) was 198 ± 49.3 % ID/g and the “Tissue (% ID/g): Lacrimal” value ([1]; 1 h post-injection) was 1.06 ± 0.49 % ID/g. The “Tissue (% ID/g): Liver” value ([1]; 1 h post-injection) was 1.32 ± 0.63 % ID/g, the “Tissue (% ID/g): Lungs” value ([1]; 1 h post-injection) was 3.59 ± 0.69 % ID/g and the “Tissue (% ID/g): Muscle” value ([1]; 1 h post-injection) was 0.63 ± 0.10 % ID/g. For the same compound, the “Tissue (% ID/g): Pancreas” value ([1]; 1 h post-injection) was 0.94 ± 0.18 % ID/g, the “Tissue (% ID/g): Salivary” value ([1]; 1 h post-injection) was 3.27 ± 1.02 % ID/g and the “Tissue (% ID/g): Seminal” value ([1]; 1 h post-injection) was 6.74 ± 10.7 % ID/g. For the same compound, the “Tissue (% ID/g): Spleen” value ([1]; 1 h post-injection) was 7.08 ± 5.08 % ID/g, the “Tissue (% ID/g): Stomach” value ([1]; 1 h post-injection) was 0.31 ± 0.08 % ID/g and the “Tissue (% ID/g): Tail” value ([1]; 1 h post-injection) was 2.18 ± 0.65 % ID/g. For the same compound, the “Tissue (% ID/g): Testes” value ([1]; 1 h post-injection) was 1.02 ± 0.13 % ID/g, the “Tissue (% ID/g): Thyroid” value ([1]; 1 h post-injection) was 1.57 ± 0.32 % ID/g and the “Tissue (% ID/g): Tumor” value ([1]; 1 h post-injection) was 13.9 ± 6.58 % ID/g. The “Tissue (% ID/g): Urine” value ([1]; 1 h post-injection) was 175 ± 178 % ID/g, the “tumor-to-background contrast ratio Tumor: Blood” value ([1]; 1 h post-injection) was 3.39 ± 1.01 and the “tumor-to-background contrast ratio Tumor: Muscle” value ([1]; 1 h post-injection) was 21.3 ± 7.50. For the same compound, the “tumor-to-background contrast ratio Tumor: kidney” value ([1]; 1 h post-injection) was 0.07 ± 0.02, the “Tissue (% ID/g): Tumor” value ([1]; 1 h post-injection, listed as 68Ga-labeled HTK03029) was about 13 % ID/g and the “uptake in PET/CT images” value (LNCaP tumors) was “higher uptake was observed in LNCap tumor xenografts, kidneys and urinary bladders”.
In the case of `O=C([O-])CN1CCN(CC(=O)[O-])CCN(CC(=O)NC[C@H]2CC[C@H](C(=O)N[C@@H](Cc3c4ccccc4cc4ccccc34)C(=O)NCCCC[C@H](NC(=O)N[C@@H](CCC(=O)O)C(=O)O)C(=O)O)CC2)CCN(CC(=O)[O-])CC1.[68Ga+3]` [^68Ga-HTK03041], the “Tissue (% ID/g): Adrenal glands” value ([1]; 1 h post-injection) is reported as 8.90 ± 2.56 % ID/g, the “Tissue (% ID/g): Blood” value ([1]; 1 h post-injection) is reported as 1.43 ± 0.30 % ID/g and the “Tissue (% ID/g): Bone” value ([1]; 1 h post-injection) is reported as 1.29 ± 0.45 % ID/g. The “Tissue (% ID/g): Brain” value ([1]; 1 h post-injection) was 0.10 ± 0.05 % ID/g, the “Tissue (% ID/g): Fat” value ([1]; 1 h post-injection) was 2.06 ± 0.59 % ID/g and the “Tissue (% ID/g): Heart” value ([1]; 1 h post-injection) was 1.82 ± 0.21 % ID/g. The “Tissue (% ID/g): Intestine” value ([1]; 1 h post-injection) was 1.14 ± 0.18 % ID/g, the “Tissue (% ID/g): Kidneys” value ([1]; 1 h post-injection) was 170 ± 26.4 % ID/g and the “Tissue (% ID/g): Lacrimal” value ([1]; 1 h post-injection) was 2.44 ± 1.79 % ID/g. For the same compound, the “Tissue (% ID/g): Liver” value ([1]; 1 h post-injection) was 1.38 ± 0.25 % ID/g, the “Tissue (% ID/g): Lungs” value ([1]; 1 h post-injection) was 4.32 ± 0.62 % ID/g and the “Tissue (% ID/g): Muscle” value ([1]; 1 h post-injection) was 0.75 ± 0.09 % ID/g. The “Tissue (% ID/g): Pancreas” value ([1]; 1 h post-injection) was 1.47 ± 0.16 % ID/g, the “Tissue (% ID/g): Salivary” value ([1]; 1 h post-injection) was 4.99 ± 0.88 % ID/g and the “Tissue (% ID/g): Seminal” value ([1]; 1 h post-injection) was 1.03 ± 0.27 % ID/g. For the same compound, the “Tissue (% ID/g): Spleen” value ([1]; 1 h post-injection) was 8.95 ± 3.22 % ID/g, the “Tissue (% ID/g): Stomach” value ([1]; 1 h post-injection) was 0.41 ± 0.11 % ID/g and the “Tissue (% ID/g): Tail” value ([1]; 1 h post-injection) was 1.36 ± 0.45 % ID/g. The “Tissue (% ID/g): Testes” value ([1]; 1 h post-injection) was 1.34 ± 0.22 % ID/g, the “Tissue (% ID/g): Thyroid” value ([1]; 1 h post-injection) was 2.48 ± 0.44 % ID/g and the “Tissue (% ID/g): Tumor” value ([1]; 1 h post-injection) was 23.1±6.11 % ID/g. The “Tissue (% ID/g): Urine” value ([1]; 1 h post-injection) was 173 ± 93.01 % ID/g, the “tumor-to-background contrast ratio Tumor: Blood” value ([1]; 1 h post-injection) was 17.3 ± 7.24 and the “tumor-to-background contrast ratio Tumor: Muscle” value ([1]; 1 h post-injection) was 31.6 ± 12.1. For the same compound, the “tumor-to-background contrast ratio Tumor: kidney” value ([1]; 1 h post-injection) was 0.14 ± 0.04, the “Tissue (% ID/g): Adrenal glands” value ([1]; 3 h post-injection) was 4.04 ± 1.20 % ID/g and the “Tissue (% ID/g): Blood” value ([1]; 3 h post-injection) was 0.83 ± 0.27 % ID/g. The “Tissue (% ID/g): Bone” value ([1]; 3 h post-injection) was 0.98 ± 0.40 % ID/g, the “Tissue (% ID/g): Brain” value ([1]; 3 h post-injection) was 0.06 ± 0.02 % ID/g and the “Tissue (% ID/g): Fat” value ([1]; 3 h post-injection) was 1.06 ± 0.20 % ID/g. For the same compound, the “Tissue (% ID/g): Heart” value ([1]; 3 h post-injection) was 0.93 ± 0.17 % ID/g, the “Tissue (% ID/g): Intestine” value ([1]; 3 h post-injection) was 0.67 ± 0.09 % ID/g and the “Tissue (% ID/g): Kidneys” value ([1]; 3 h post-injection) was 121 ± 37.6 % ID/g. The “Tissue (% ID/g): Lacrimal” value ([1]; 3 h post-injection) was 2.82 ± 3.84 % ID/g, the “Tissue (% ID/g): Liver” value ([1]; 3 h post-injection) was 0.82 ± 0.15 % ID/g and the “Tissue (% ID/g): Lungs” value ([1]; 3 h post-injection) was 2.14 ± 0.39 % ID/g. For the same compound, the “Tissue (% ID/g): Muscle” value ([1]; 3 h post-injection) was 0.40 ± 0.06 % ID/g, the “Tissue (% ID/g): Pancreas” value ([1]; 3 h post-injection) was 0.71 ± 0.12 % ID/g and the “Tissue (% ID/g): Salivary” value ([1]; 3 h post-injection) was 2.11 ± 0.57 % ID/g. The “Tissue (% ID/g): Seminal” value ([1]; 3 h post-injection) was 4.56 ± 9.00 % ID/g, the “Tissue (% ID/g): Spleen” value ([1]; 3 h post-injection) was 4.19 ± 1.58 % ID/g and the “Tissue (% ID/g): Stomach” value ([1]; 3 h post-injection) was 0.26 ± 0.06 % ID/g. The “Tissue (% ID/g): Tail” value ([1]; 3 h post-injection) was 0.86 ± 0.73 % ID/g, the “Tissue (% ID/g): Testes” value ([1]; 3 h post-injection) was 0.89 ± 0.12 % ID/g and the “Tissue (% ID/g): Thyroid” value ([1]; 3 h post-injection) was 1.19 ± 0.23 % ID/g. For the same compound, the “Tissue (% ID/g): Tumor” value ([1]; 3 h post-injection) was 28.2±9.17 % ID/g, the “Tissue (% ID/g): Urine” value ([1]; 3 h post-injection) was 171 ± 93.3 % ID/g and the “tumor-to-background contrast ratio Tumor: Blood” value ([1]; 3 h post-injection) was 36.6 ± 15.4. For the same compound, the “tumor-to-background contrast ratio Tumor: Muscle” value ([1]; 3 h post-injection) was 73.8 ± 30.9, the “tumor-to-background contrast ratio Tumor: kidney” value ([1]; 3 h post-injection) was 0.26 ± 0.13 and the “uptake in PET/CT images” value (LNCaP tumors) was “higher uptake was observed in LNCap tumor xenografts, kidneys and urinary bladders”.
